Data taken from ChEMBL document CHEMBL5441456, “ASAP - SARS-CoV-2 nsp3 macrodomain dose response” (2024).
“And” between values parts separate entries of the source, which are not always exact repeats. Identical values can stand only once.

These molecules were tested against Replicase polyprotein 1ab (Severe acute respiratory syndrome coronavirus 2, UniProt P0DTD1) (assay: Functional biochemical assay to identify treatments for viral infectious disease that targets SARS-COV-2 nsp3 macrodomain, whereby the mechanism of action displaces an ADP-Ribose modified peptide from the binding site. Utilizing a time-resolved fluorescence method to measure binding by reading the emitted fluorescence intensity in two wavelengths.).
In the case of `CC(C)[C@H](Nc1ncnc(N)c1Cl)c1ccc2c(c1)S(=O)(=O)CCC2`, the IC50 is reported as 2.94 µM and 1.56 µM. For `CS(=O)(=O)Nc1ccc([C@@H](CC(=O)O)NC(=O)c2ncnc3[nH]ccc23)cc1`, the IC50 was 12.1 µM and 10 µM. In the case of `CC(C)[C@@H](Nc1ncnc2[nH]c(-c3cnn(C4(C(N)=O)CC4)c3)cc12)c1ccc2c(c1)OCCO2`, the IC50 is reported as 1.04 µM and 1.38 µM and 1.31 µM. With `Cc1ccc2c(NC(=O)c3ccc(NC(=O)NC4CC4)cc3)c(C(=O)O)sc2n1` the IC50 was > 99.5 µM. In the case of `CC(C)[C@@H](Nc1ncnc2[nH]ccc12)C(N)=O`, the IC50 is reported as 30.7 µM. `Cc1[nH]c2ncnc(NC(=O)c3ccc(-n4cccc4)nc3)c2c1C` was tested, and the IC50 was > 99.5 µM. `CC(C)[C@@H](Nc1ncnc2[nH]c(-c3cnc(C#N)nc3)cc12)c1ccc2c(c1)OCCO2` was tested, and the IC50 was 2.52 µM and 2.51 µM. With `CC(C)[C@@H](Nc1ncnc2[nH]c(C(=O)Nc3cn(C)nc3O)cc12)c1ccc2c(c1)OCCO2` the IC50 was 0.678 µM and 0.611 µM. In the case of `COCCn1ncc(-c2cc3c(N[C@@H](c4ccc5c(c4)OCCO5)C(C)C)ncnc3[nH]2)c1C#N`, the IC50 is reported as 0.394 µM and 0.449 µM. In the case of `CO[C@H]1C[C@@H](C(=O)O)N(c2ncnc3[nH]ccc23)C1`, the IC50 is reported as 79.4 µM and 83.6 µM. For `CNC(=O)c1cccc(-c2cc3c(N[C@@H](c4ccc5c(c4)S(=O)(=O)CCC5)C(C)C)ncnc3[nH]2)c1`, the IC50 was 6.74 µM. For `Cc1nnc(Nc2ccc(C(=O)N[C@H]3c4cccc(O)c4C[C@@H]3C(=O)O)cc2)o1`, the IC50 was > 99.5 µM. In the case of `O=C(OCc1cccc(Cl)n1)c1ncnc2[nH]ccc12`, the IC50 is reported as > 124 µM. In the case of `CC(C)OCCNC(=O)c1cc2c(=O)n3ccccc3nc2n1C`, the IC50 is reported as > 124 µM. With `Cn1c(C(=O)O)c(NC(=O)c2ccc(NC(=O)NC3CC3)cc2)c2cccnc21` the IC50 was > 99.5 µM. For `CC(=O)N1[C@@H]2CC[C@H]1c1c(ncnc1N[C@@H](c1ccc3c(c1)S(=O)(=O)CCC3)C(C)C)C2`, the IC50 was > 99.5 µM. `CCOC(=O)C1=C(Nc2cc(C)cc(C)c2)OCC1=O` was tested, and the IC50 was > 99.5 µM. With `C[C@@H](Nc1ncnc2[nH]ccc12)[C@@H]1CCOC1` the IC50 was > 99.5 µM. For `CC(C)[C@@H](Nc1ncnc2[nH]c(-c3ccnn3CC3CC3)cc12)c1ccc2c(c1)OCCO2`, the IC50 was 4.22 µM and 3.91 µM. With `CC(C)[C@@H](NC(=O)Cc1ncnc2[nH]ccc12)c1ccc2c(c1)S(=O)(=O)CCC2` the IC50 was > 99.5 µM. In the case of `CC(C)[C@@H](Nc1ncnc2[nH]c([C@@H]3CCCNC3)cc12)c1ccc2c(c1)OCCO2`, the IC50 is reported as 3.49 µM and 5.54 µM and 5.19 µM. For `Cc1[nH]c2ncnc(NC(=O)c3ncccc3Cl)c2c1C`, the IC50 was 49.3 µM and 60.3 µM. For `C[C@H]1C[C@H]1c1nnc(Nc2ccc([C@@H](CC(=O)O)NC(=O)c3c[nH]c4ncncc34)cc2)o1`, the IC50 was 85.2 µM and 97 µM. With `O=C(Nc1ccc(C(=O)NCc2c(C(=O)O)[nH]c3ccccc23)cc1)NC1CC1` the IC50 was 13.6 µM. In the case of `CC(C)[C@@H](Nc1ncnc2[nH]c(C(=O)NCc3ccn(C)n3)cc12)c1ccc2c(c1)OCCO2`, the IC50 is reported as 0.955 µM and 1.04 µM. In the case of `CC(C)[C@H](Nc1ncnc2ccoc12)c1ccc2c(c1)S(=O)(=O)CCC2`, the IC50 is reported as > 99.5 µM. With `CC(C)[C@@H](Nc1ncnc2[nH]c(-c3cnn(-c4ccc(F)cc4)c3)cc12)c1ccc2c(c1)OCCO2` the IC50 was 27.4 µM and 26 µM. In the case of `O=C(O)C[C@@H](NC(=O)c1cccc2[nH]ncc12)c1ccc(Br)cc1`, the IC50 is reported as > 99.5 µM. For `Cc1ncc(CNC(=O)c2cc3c(N[C@@H](c4ccc5c(c4)OCCO5)C(C)C)ncnc3[nH]2)o1`, the IC50 was 0.695 µM and 0.623 µM. For `Cc1cc(-c2cc3c(N[C@@H](c4ccc5c(c4)OCCO5)C(C)C)ncnc3[nH]2)[nH]n1`, the IC50 was 2.56 µM and 3.09 µM. With `c1nc(N[C@@H](C2CC2)[C@@H]2CCCOC2)c2cc[nH]c2n1` the IC50 was > 99.5 µM. With `O=C(NCc1cc2n(n1)CCCC2)c1cc2cncnc2[nH]1` the IC50 was > 124 µM. In the case of `O=C(Nc1ccccc1)Nc1ccc(C(=O)NC2c3cccc(O)c3CC2C(=O)O)cc1` (centres undefined), the IC50 is reported as 1.02 µM and 1.06 µM and 650 nM and 440 nM (3×) and 535 nM and 555 nM and 628 nM and 598 nM and 632 nM (2×) and 644 nM and 653 nM (2×) and 470 nM and 462 nM and 430 nM and 474 nM and 540 nM and 599 nM and 592 nM and 435 nM and 316 nM and 338 nM and 701 nM and 439 nM and 411 nM and 374 nM (2×) and 353 nM (2×) and 447 nM and 847 nM and 925 nM and 461 nM and 794 nM and 731 nM and 432 nM and 1.1 µM and 317 nM and 406 nM and 649 nM and 516 nM and 384 nM and 402 nM and 289 nM and 506 nM and 262 nM and 224 nM. For `Cc1nn(CC(C)C)c(Cl)c1[C@@H]1CCCN1c1ncnc2[nH]ccc12`, the IC50 was > 99.5 µM.
